Read-outs that look alike come from different tables or passages of the source.

The test system of assay [1] is HCV 1b-BB7 subgenomic replicon. In words: microbe, parasite or virus in culture. Type of assay: cell-based, HCV genotype 1b. The settings on record: Hepatitis C virus.
Assay [2] deals with T1, HCV NS5B polymerase 1a-H77-C316Y (Hepatitis C virus genotype 1a, UniProt P27958, C2736Y).
T1 construct: six-histidine tag; made in house; host or cells: E. coli
In words: biochemical. Also on record: species or system HCV genotype 1a. The essentials: (§1)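 Recombinant NS5B (residues 1–570, His-tagged, E. coli-expressed) copied 5 nM of a 2.1 kb HCV 1b negative-strand 3′-end RNA template with 20 μM CTP, 20 μM ATP and 0.284 μM [3H]UTP for 3 h at 30 °C. Spermine-precipitated RNA was filter-captured and counted, and IC50 was fitted by nonlinear regression.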

Assay [3] has as its system HCV NS5B polymerase 1a-H77-C316Y. Briefly: biochemical. Conditions: ratio of enzyme IC50s, 1a H77-C316Y / 1a H77. The arrangement: species or system HCV genotype 1a. The gist of the method: as §1
The target of assay [4] is T2, HCV NS5B polymerase 1a-H77 (Hepatitis C virus genotype 1a, UniProt P27958).
T2 construct: six-histidine tag; made in house; host or cells: E. coli
Briefly: biochemical. The arrangement: species or system HCV genotype 1a. The gist of the method:
as §1

In assay [5] the test system is HCV 1a-H77-C316Y transient subgenomic replicon in Huh-7 derived cell line. Briefly: microbe, parasite or virus in culture. It is filed as cell-based, HCV genotype 1a. Conditions: for EC50: Hepatitis C virus, Huh-7, read-out: Transient Replicon 1a H77-C316Y 5% FBS EC50; for Transient Replicon Fold Resistance C316Y/1a: ratio of transient replicon EC50s, C316Y / 1a H77. The essentials:
(§2)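 Subgenomic replicon RNA (no Neo gene) electroporated into Huh-7-derived cells, plated at 5×10^3 cells/well; a 4 h plate gauged transfection efficiency. Cells exposed to 3-fold compound dilutions (0.5% DMSO) for 4 days at 37° C, then lysed for luciferase readout; EC50 calculated.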
For orientation: A replicon is a self-replicating genome or part of one, used to study replication in cells.

Assay [6] deals with HCV 1a-H77 transient subgenomic replicon in Huh-7 derived cell line. Briefly: microbe, parasite or virus in culture. Type of assay: cell-based, HCV genotype 1a. The settings on record: Hepatitis C virus. The essentials:
as §2

The subject of assay [7] is chimeric replicon with genotype 2b NS5B. Briefly: microbe, parasite or virus in culture. It is filed as cell-based, HCV genotype 2b. The settings on record: Hepatitis C virus, read-out: 2b chimera 5% FBS EC50.
The subject of assay [8] is chimeric replicon with genotype 3a NS5B. Briefly: microbe, parasite or virus in culture. It is filed as cell-based, HCV genotype 3a. The settings on record: Hepatitis C virus, read-out: 3a chimera 5% FBS EC50.
The subject of assay [9] is HCV 1a-H77 subgenomic replicon. Briefly: microbe, parasite or virus in culture. It is filed as cell-based, HCV genotype 1a. The settings on record: Hepatitis C virus.
The target in assay [10] is T3, HCV NS5B polymerase 1b BK strain (Hepatitis C virus genotype 1b, UniProt P26663).
T3 construct: six-histidine tag; made in house; host or cells: E. coli
In words: HCV NS5B polymerase enzymatic inhibition assay, strain 1b BK. Type of assay: biochemical. The essentials:
as §1

Assay [11] concerns chimeric replicon with genotype 4a NS5B. Briefly: microbe, parasite or virus in culture. Type of assay: cell-based, HCV genotype 4a. Conditions: Hepatitis C virus, read-out: 4a chimera 5% FBS EC50.
In assay [12] the test system is chimeric replicon with 2a-J6CF-derived NS5B. In words: microbe, parasite or virus in culture. It is filed as cell-based, HCV genotype 2a. The settings on record: Hepatitis C virus, read-out: 2a chimera 5% FBS EC50.
Where [13] appears, read: stable replicon, strain 1b BB7, 5% FBS + 40% human plasma, read-out: 1b BB7 5% FBS + 40% Human Plasma EC50.
The mark [14] stands for this setting: stable replicon, strain 1b BB7, 5% FBS, no human plasma, read-out: 1b BB7 5% FBS EC50.
Setting [15] is: stable replicon, strain 1b BB7, 5% FBS, read-out: 1b BB7 5% FBS EC50.
Setting [16] is: enzyme, strain 1a H77, read-out: HCV Polymerase Strain 1a H77 IC50.
Setting [17] is: Huh-7, transient replicon, 5% FBS, read-out: Transient Replicon 1a H77 5% FBS EC50.
Setting [18] is: stable replicon, 5% FBS, absence of human plasma, read-out: Stable Replicon 1a H77 5% FBS EC50.
[19] abbreviates: stable replicon, strain 1a H77, 5% FBS + 40% human plasma, read-out: 1a H77 5% FBS + 40% Human Plasma EC50.
Setting [20] is: stable replicon, strain 1a H77, 5% FBS, no human plasma, read-out: 1a H77 5% FBS EC50.
The mark [21] stands for this setting: stable replicon, strain 1a H77, 5% FBS, read-out: 1a H77 5% FBS EC50.
The mark [22] stands for this setting: enzyme, strain 1b BK, read-out: HCV Polymerase Strain 1b BK IC50.

T3 sequence (P26663 2420-2989): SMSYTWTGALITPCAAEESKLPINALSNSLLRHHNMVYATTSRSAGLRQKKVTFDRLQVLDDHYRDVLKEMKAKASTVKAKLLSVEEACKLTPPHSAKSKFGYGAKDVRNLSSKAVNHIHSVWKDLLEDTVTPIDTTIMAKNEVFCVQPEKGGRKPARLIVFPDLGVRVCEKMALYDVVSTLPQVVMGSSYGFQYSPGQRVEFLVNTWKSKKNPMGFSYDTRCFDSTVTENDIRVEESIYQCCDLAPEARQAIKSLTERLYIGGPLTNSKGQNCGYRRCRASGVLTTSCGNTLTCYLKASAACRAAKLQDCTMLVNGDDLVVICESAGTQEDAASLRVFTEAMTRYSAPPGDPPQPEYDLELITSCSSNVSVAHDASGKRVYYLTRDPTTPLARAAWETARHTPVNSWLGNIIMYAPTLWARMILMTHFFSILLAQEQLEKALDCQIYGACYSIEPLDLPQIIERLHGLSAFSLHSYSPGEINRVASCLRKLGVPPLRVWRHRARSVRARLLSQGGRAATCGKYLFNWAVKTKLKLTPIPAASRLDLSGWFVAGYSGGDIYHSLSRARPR
T1 sequence (P27958 2421-2990 C2736Y): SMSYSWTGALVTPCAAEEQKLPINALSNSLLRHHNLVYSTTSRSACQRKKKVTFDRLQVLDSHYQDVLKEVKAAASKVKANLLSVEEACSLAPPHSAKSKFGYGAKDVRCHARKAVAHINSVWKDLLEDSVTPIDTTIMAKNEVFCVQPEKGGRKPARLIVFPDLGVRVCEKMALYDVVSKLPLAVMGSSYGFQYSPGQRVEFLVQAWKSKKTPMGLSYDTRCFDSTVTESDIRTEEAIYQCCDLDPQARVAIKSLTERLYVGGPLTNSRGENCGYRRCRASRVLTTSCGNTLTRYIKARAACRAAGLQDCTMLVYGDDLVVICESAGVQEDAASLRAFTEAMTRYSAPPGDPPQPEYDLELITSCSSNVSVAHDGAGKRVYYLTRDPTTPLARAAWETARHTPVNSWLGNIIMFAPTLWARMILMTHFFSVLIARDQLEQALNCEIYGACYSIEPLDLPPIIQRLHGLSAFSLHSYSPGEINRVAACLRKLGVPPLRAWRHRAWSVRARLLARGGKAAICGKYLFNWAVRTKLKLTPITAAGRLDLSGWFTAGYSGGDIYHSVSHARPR
T2 sequence (P27958 2421-2990): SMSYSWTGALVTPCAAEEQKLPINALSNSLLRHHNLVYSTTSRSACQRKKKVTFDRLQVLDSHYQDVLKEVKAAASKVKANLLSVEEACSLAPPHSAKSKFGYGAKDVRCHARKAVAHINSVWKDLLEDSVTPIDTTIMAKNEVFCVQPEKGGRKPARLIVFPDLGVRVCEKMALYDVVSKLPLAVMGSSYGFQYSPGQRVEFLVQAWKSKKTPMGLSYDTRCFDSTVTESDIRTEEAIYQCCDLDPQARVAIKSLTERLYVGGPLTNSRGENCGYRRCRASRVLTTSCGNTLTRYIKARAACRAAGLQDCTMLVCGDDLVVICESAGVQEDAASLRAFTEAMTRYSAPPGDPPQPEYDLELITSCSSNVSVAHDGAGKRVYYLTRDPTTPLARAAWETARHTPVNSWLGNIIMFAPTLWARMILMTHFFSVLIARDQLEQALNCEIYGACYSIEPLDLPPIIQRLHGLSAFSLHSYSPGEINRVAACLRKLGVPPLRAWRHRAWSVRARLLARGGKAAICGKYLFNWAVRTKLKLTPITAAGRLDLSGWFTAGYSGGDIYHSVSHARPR

Usually EC50 stands for the concentration at which the effect is half-maximal. As a reminder, the IC50 is the midpoint of a concentration-inhibition curve. With `CCS(=O)(=O)CCN(c1cc2oc(-c3ccc(F)cc3)c(-c3ncc[nH]3)c2cc1C1CC1)S(C)(=O)=O` [Example 96, N-[5-cyclopropyl-2-(4-fluorophenyl)-3-(1H-imidazol-2-yl)-1-benzofuran-6-yl]-N-[2-(ethylsulfonyl)ethyl]methanesulfonamide], the 50% effective concentration (EC50) in assay [1] (setting [13]) worked out at 37 nM; in assay [1] (setting [14]) it was 4 nM; in assay [1] (setting [15]), 4 nM; in assay [5] it was 80.6 nM; in [6] (setting [17]) it was 1.1 nM; in assay [7], 126 nM. Besides, the EC50 in assay [8] worked out at 5.9 nM; in assay [9] (setting [18]), 6.3 nM; in [9] (setting [19]) it was 58 nM; in [9] (setting [20]) it was 6.2 nM; in [9] (setting [21]), 6.3 nM; in [11] it was 41.9 nM. For the same compound, the EC50 in assay [12] came out at 43.7 nM. Further, the IC50 in [2] turned out to be 58 nM; in assay [4] (setting [16]), 8.9 nM; in [10] (setting [22]), 34 nM. Besides, the “C316Y/1a Fold Resistance” value in assay [3] is 6 fold. Besides, in assay [5], the “Transient Replicon Fold Resistance C316Y/1a” value came out at 73 fold.

Turning to `CS(=O)(=O)N(CCCC#N)c1cc2oc(-c3ccc(F)cc3)c(-c3ncc[nH]3)c2cc1C1CC1` [Example 49, N-(3-cyanopropyl)-N-[5-cyclopropyl-2-(4-fluorophenyl)-3-(1H-imidazol-2-yl)-1-benzofuran-6-yl]methanesulfonamide], the 50% effective concentration (EC50) in assay [1] (setting [13]) worked out at 28.1 nM; in assay [1] (setting [14]), 3 nM; in assay [1] (setting [15]) it was 3 nM; in assay [5] it was 76.8 nM; in assay [6] (setting [17]) it was 2.2 nM; in assay [7], 41.5 nM. The 50% effective concentration (EC50) in [8] worked out at 3.7 nM; in [9] (setting [18]) it was 3.7 nM; in [9] (setting [19]), 53.9 nM; in assay [9] (setting [20]), 3.7 nM; in [9] (setting [21]), 3.7 nM; in [11] it was 33.9 nM. Further, in assay [12], the EC50 came out at 22.4 nM. Besides, the results for the half-maximal inhibitory concentration (IC50) in [2], in [4] (setting [16]) and in assay [10] (setting [22]) were 52 nM, 5 nM and 17 nM, respectively. The “C316Y/1a Fold Resistance” value in [3] was 10 fold. Also, the “Transient Replicon Fold Resistance C316Y/1a” value in [5] came to 35 fold.

In the case of `CC1NC(c2c(-c3ccc(F)cc3)oc3cc(N(CC[S+](C)[O-])S(C)(=O)=O)c(C4CC4)cc23)=NO1` (stereo not shown) [Example 13, N-[5-cyclopropyl-2-(4-fluorophenyl)-3-(5-methyl-4,5-dihydro-1,2,4-oxadiazol-3-yl)-1-benzofuran-6-yl]-N-[2-(methylsulfinyl)ethyl]methanesulfonamide], the half-maximal effective concentration (EC50) in [1] (setting [13]) was found to be 146 nM; in [1] (setting [14]), 15.9 nM; in assay [1] (setting [15]) it was 15.9 nM; in assay [5], 134 nM; in assay [6] (setting [17]), 11.1 nM; in [7], 307 nM. The EC50 in assay [8] came out at 42 nM; in assay [9] (setting [18]), 14.8 nM; in [9] (setting [19]), 163 nM; in assay [9] (setting [20]), 14.8 nM; in assay [9] (setting [21]), 14.8 nM; in assay [11], 159 nM. In addition, the EC50 in assay [12] was found to be 384 nM. Moreover, the IC50 was found to be 115 nM in assay [2], 7.4 nM in assay [4] (setting [16]) and 26 nM in [10] (setting [22]). Further, the “C316Y/1a Fold Resistance” value in assay [3] came to 16 fold. In addition, the “Transient Replicon Fold Resistance C316Y/1a” value in [5] is 12 fold.

Turning to `CS(=O)(=O)N(CCCCO)c1cc2oc(-c3ccc(F)cc3)c(C3=NOCN3)c2cc1C1CC1` [Example 16, N-[5-cyclopropyl-3-(4,5-dihydro-1,2,4-oxadiazol-3-yl)-2-(4-fluorophenyl)-1-benzofuran-6-yl]-N-(4-hydroxybutyl)methanesulfonamide], the EC50 in assay [1] (setting [13]) was determined as 2190 nM; in assay [1] (setting [14]), 2.5 nM; in assay [1] (setting [15]) it was 2.5 nM; in assay [5], 43.7 nM; in assay [6] (setting [17]) it was 2.6 nM; in [7], 60.4 nM. Moreover, the EC50 in [8] came to 5.5 nM; in [9] (setting [18]), 3.8 nM; in [9] (setting [19]), 411 nM; in assay [9] (setting [20]) it was 3.8 nM; in assay [9] (setting [21]), 3.8 nM; in assay [11], 61.3 nM. Moreover, the EC50 in [12] came to 43.8 nM. The IC50 in assay [2] amounted to 35 nM; in [4] (setting [16]), 3 nM; in [10] (setting [22]), 18 nM. Moreover, in [3], the “C316Y/1a Fold Resistance” value was determined as 12 fold. Moreover, the “Transient Replicon Fold Resistance C316Y/1a” value in assay [5] is recorded as 17 fold.

In the case of `CS(=O)(=O)N(CCC1CCS(=O)(=O)C1)c1cc2oc(-c3ccc(F)cc3)c(-c3ncc[nH]3)c2cc1C1CC1` (stereo not shown) [Example 61, N-[5-cyclopropyl-2-(4-fluorophenyl)-3-(1H-imidazol-2-yl)-1-benzofuran-6-yl]-N-[2-(1,1-dioxidotetrahydrothiophen-3-yl)ethyl]methanesulfonamide], the EC50 in assay [1] (read-out: 1b BB7 5% FBS + 40% Human Plasma EC50) came to 18.4 nM; in [1] (read-out: 1b BB7 5% FBS EC50), 3 nM; in [5] it was 45.8 nM; in assay [6] (Huh-7, read-out: Transient Replicon 1a H77 5% FBS EC50) it was 3.6 nM; in assay [7], 29.9 nM; in assay [8], 6.2 nM. For the same compound, the EC50 in assay [9] (read-out: 1a H77 5% FBS + 40% Human Plasma EC50) is 72.2 nM; in assay [9] (read-out: 1a H77 5% FBS EC50), 5.4 nM; in assay [9] (read-out: Stable Replicon 1a H77 5% FBS EC50), 5.4 nM; in assay [11], 18.4 nM; in assay [12] it was 41 nM. Also, the IC50 in assay [2] was 76 nM; in assay [4], 8.9 nM; in assay [10] it was 16 nM. For the same compound, the “C316Y/1a Fold Resistance” value in assay [3] stood at 9 fold. The “Transient Replicon Fold Resistance C316Y/1a” value in [5] is on record as 13 fold.

In the case of `CC(C)(O)C(O)CCN(c1cc2oc(-c3ccc(F)cc3)c(C3=NOCN3)c2cc1C1CC1)S(C)(=O)=O` (stereo not shown) [Example 146, N-[5-cyclopropyl-3-(4,5-dihydro-1,2,4-oxadiazol-3-yl)-2-(4-fluorophenyl)-1-benzofuran-6-yl]-N-(3,4-dihydroxy-4-methylpentyl)methanesulfonamide], the EC50 in assay [1] (setting [13]) amounted to 2710 nM; in [1] (setting [14]), 17.9 nM; in assay [1] (setting [15]) it was 17.9 nM; in [5] it was 237 nM; in assay [6] (setting [17]), 11.2 nM; in [7] it was 169 nM. For the same compound, the EC50 was determined as 17 nM in [8]; 12.6 nM in assay [9] (setting [18]); 1660 nM in [9] (setting [19]); 12.6 nM in [9] (setting [20]); 12.6 nM in [9] (setting [21]); 277 nM in assay [11]. The EC50 in assay [12] is 179 nM. Besides, the IC50 in [2] worked out at 45 nM; in assay [4] (setting [16]) it was 4.9 nM; in [10] (setting [22]), 25 nM. Also, the “C316Y/1a Fold Resistance” value in [3] amounted to 9 fold. For the same compound, in [5], the “Transient Replicon Fold Resistance C316Y/1a” value is reported as 21 fold.

(Values after patent publication US20160355530A1, “HEPATITIS C INHIBITORS AND USES THEREOF” (AbbVie Inc., priority 2010, published 2016).)
